A word on the melting point: it is the temperature of the solid-liquid transition.

Structures are written as SMILES.

The results in this text go back to patent publication US6613772B1, “Substituted 2-aryl-4-amino-chinazolines, method for the production and use thereof as medicaments” (Aventis Pharma Deutschland GmbH, priority 1997, dated 2003).

The target of data set [1] is T1, soluble guanylate cyclase (sGC) (Bos taurus, UniProt P16068+P19687).
T1 construct: The sGC employed had been isolated from bovine lung; from tissue; host or cells: bovine lung
T1 sequence (P19687 1-691): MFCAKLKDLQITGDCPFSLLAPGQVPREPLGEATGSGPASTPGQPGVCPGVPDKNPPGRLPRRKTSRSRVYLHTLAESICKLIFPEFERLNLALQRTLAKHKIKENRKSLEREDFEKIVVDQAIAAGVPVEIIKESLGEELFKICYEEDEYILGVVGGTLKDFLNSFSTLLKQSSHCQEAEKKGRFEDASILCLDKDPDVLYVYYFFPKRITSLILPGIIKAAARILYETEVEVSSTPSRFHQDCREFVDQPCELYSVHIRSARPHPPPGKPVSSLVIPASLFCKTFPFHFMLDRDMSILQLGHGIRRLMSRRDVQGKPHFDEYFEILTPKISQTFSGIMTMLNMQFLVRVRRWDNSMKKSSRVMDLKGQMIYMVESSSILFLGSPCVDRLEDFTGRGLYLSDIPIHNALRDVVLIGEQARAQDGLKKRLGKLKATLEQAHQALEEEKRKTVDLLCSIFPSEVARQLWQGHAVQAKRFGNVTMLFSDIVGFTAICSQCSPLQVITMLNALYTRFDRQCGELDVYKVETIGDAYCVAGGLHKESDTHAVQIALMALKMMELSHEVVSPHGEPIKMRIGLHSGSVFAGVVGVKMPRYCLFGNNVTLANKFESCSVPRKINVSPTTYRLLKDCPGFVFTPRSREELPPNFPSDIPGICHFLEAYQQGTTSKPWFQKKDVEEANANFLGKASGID
T1 sequence (P16068 1-619): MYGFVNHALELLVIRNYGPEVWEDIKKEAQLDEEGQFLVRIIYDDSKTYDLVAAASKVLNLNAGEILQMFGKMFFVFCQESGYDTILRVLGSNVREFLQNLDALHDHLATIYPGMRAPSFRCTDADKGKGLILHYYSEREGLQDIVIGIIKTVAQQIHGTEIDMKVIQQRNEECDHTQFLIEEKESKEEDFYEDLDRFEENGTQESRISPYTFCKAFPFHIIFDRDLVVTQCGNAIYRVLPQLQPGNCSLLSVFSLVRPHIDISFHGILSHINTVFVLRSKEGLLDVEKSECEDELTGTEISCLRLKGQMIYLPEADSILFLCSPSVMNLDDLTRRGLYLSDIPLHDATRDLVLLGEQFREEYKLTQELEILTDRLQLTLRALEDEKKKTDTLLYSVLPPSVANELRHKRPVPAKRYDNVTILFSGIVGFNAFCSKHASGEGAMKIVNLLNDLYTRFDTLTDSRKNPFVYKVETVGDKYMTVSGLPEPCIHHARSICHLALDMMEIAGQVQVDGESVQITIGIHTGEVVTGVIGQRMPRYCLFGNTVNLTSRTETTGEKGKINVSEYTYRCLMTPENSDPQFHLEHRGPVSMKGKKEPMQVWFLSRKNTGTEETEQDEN
Kind of data set: Activation of the soluble guanylate cyclase (cGMP enzyme immunoassay). Conditions: test substance 50 μM; sGC isolated from bovine lung; [cGMP] test substance/[cGMP] control (basal activity, solvent); 37° C., 15 to 20 minutes. Format: biochemical. On the procedure:
Activation of the Soluble Guanylate Cyclase
The activation of the soluble guanylate cyclase (sGC), which catalyzes the conversion of guanosine triphosphate (GTP) into cyclic guanosine monophosphate (cGMP) and pyrophosphate, by the compounds according to the invention was quantified with the aid of an enzyme immunoassay (EIA) from Amersham. For this, the test substances were first incubated with sGC in microtiter plates and then the amount of resulting cGMP was determined. The sGC employed had been isolated from bovine lung (see Methods in Enzymology, Volume 195, p. 377). The test solutions (100 μl per well) contained 50 mM triethanolamine (TEA) buffer (pH 7.5), 3 mM MgCl2, 3 mM reduced glutathione (GSH), 0.1 mM GTP, 1 mM 3-isobutyl-1-methylxanthine (IBMX), suitably diluted enzyme solution and the test substance or, in the case of the control experiments, solvent. The test substances were dissolved in dimethyl sulfoxide (DMSO) and the solution was diluted with DMSO/water such that the final concentration of test substance in the test solution was 50 μM. The DMSO concentration in the test solution was 5% (v/v). The reaction was started by addition of the sGC. The reaction mix was incubated at 37° C. for 15 to 20 minutes and then stopped by ice-cooling and addition of the stop reagent (50 mM EDTA, pH 8.0). An aliquot of 50 μl was taken and employed for the determination of the cGMP content using the acetylation protocol of the Amersham cGMP EIA kit. The absorption of the samples was measured at 450 nm (reference wavelength 620 nm) in a microtiter plate reader. The cGMP concentration was determined by means of a calibration curve which was obtained under the same experimental conditions. The activation of the sGC by a test substance is indicated as n-fold stimulation of the basal enzyme activity which was found in the control experiments (with solvent instead of test substance calculated according to the formula
n-fold stimulation=[cGMP]test substance/[cGMP]control).

The compound `COc1cc2nc(-c3ccc(Cl)cc3)nc(NCCOCCO)c2cc1OC` [Example 33, 2-(4-Chlorophenyl)-4-(2-(2-hydroxyethoxy)ethylamino)-6,7-dimethoxyquinazoline] showed a melting point of 188 °C. Moreover, the “n-fold Stimulation” value in data set [1] worked out at 3 n-fold. `COc1cc2nc(-c3ccc(Cl)cc3)nc(N3CCN(C)CC3)c2cc1OC.Cl` [Example 17, 2-(4-Chlorophenyl)-4-(4-methylpiperazino)-6,7-dimethoxyquinazoline Hydrochloride] showed a melting point of 249 °C. For the same compound, the “n-fold Stimulation” value in data set [1] came to 4 n-fold.

`COc1cc2nc(-c3ccc(Cl)cc3)nc(NCCCO)c2cc1OC` [Example 32, 2-(4-Chlorophenyl)-4-(3-hydroxypropylamino)-6,7-dimethoxyquinazoline] came in with a melting point of 187 °C. Besides, in data set [1], the “n-fold Stimulation” value came to 5 n-fold.

In the case of `COCCNc1nc(-c2ccc(Cl)cc2)nc2cc(OC)c(OC)cc12` [Example 36, 2-(4-Chlorophenyl)-4-(2-methoxyethylamino)-6,7-dimethoxyquinazoline], the melting point stood at 178 °C. For the same compound, in data set [1], the “n-fold Stimulation” value is on record as 5 n-fold.

In turn, `COc1cc2nc(-c3ccc(Cl)cc3)nc(NC3CCCC3)c2cc1OC` [Example 92, 2-(4-Chlorophenyl)-4-cyclopentylamino-6,7-dimethoxyquinazoline] came in with a melting point of 231 °C. The “n-fold Stimulation” value in data set [1] amounted to 6 n-fold. In the same order, the values of `COc1cc2nc(-c3ccc(Cl)cc3)nc(N(C)C)c2cc1OC` [Example 35, 2-(4-Chlorophenyl)-4-dimethylamino-6,7-dimethoxyquinazoline] are 148 °C and 5 n-fold. Compound `COc1cc2nc(-c3ccc(C(F)(F)F)cc3)nc(NCCO)c2cc1OC` [Example 42, 2-(4-Trifluoromethylphenyl)-4-(2-hydroxyethylamino)-6,7-dimethoxyquinazoline] showed a melting point of 210 °C. Besides, the “n-fold Stimulation” value in data set [1] is reported as 3 n-fold.

The compound `COc1cc2nc(-c3ccc(Cl)cc3)nc(NCc3cccnc3)c2cc1OC` [Example 28, 2-(4-Chlorophenyl)-4-((3-pyridylmethyl)amino)-6,7-dimethoxyquinazoline] gave a melting point of 232 °C. Moreover, the “n-fold Stimulation” value in data set [1] was found to be 5 n-fold. In the same order, the values of `COc1cc2nc(-c3ccc(C)cc3)nc(N[C@H]3CC[C@H](O)CC3)c2cc1OC` [Example 96, 2-(4-Methylphenyl)-4-(trans-4-hydroxycyclohexylamino)-6,7-dimethoxyquinazoline] are 243 °C and 16 n-fold. On to `COc1cc2c(N3CCN(Cc4ccccc4)CC3)nc(-c3ccc(Cl)cc3)nc2c(OC)c1OC` [Example 09, 2-(4-Chlorophenyl)-4-(4-benzylpiperazino)-6,7,8-trimethoxyquinazoline], for which, in data set [1], the “n-fold Stimulation” value was 4 n-fold. In the case of `COc1cc2c(N[C@H]3CC[C@H](O)CC3)nc(-c3ccc(Cl)cc3)nc2c(OC)c1OC` [Example 94, 2-(4-Chlorophenyl)-4-(trans-4-hydroxycyclohexylamino)-6,7,8-trimethoxyquinazoline], the melting point is 199 °C. For the same compound, in data set [1], the “n-fold Stimulation” value turned out to be 13 n-fold.

Consider `COc1cc2nc(-c3ccc(C)cc3)nc(N3CCN(C)CC3)c2cc1OC` [Example 39, 2-(4-Methylphenyl)-4-(4-methylpiperazino)-6,7-dimethoxyquinazoline], for which the melting point is 166 °C. Besides, the “n-fold Stimulation” value in data set [1] came to 3 n-fold. `COc1cc2nc(-c3ccc(Cl)cc3)nc(NC3CC(C)(C)NC(C)(C)C3)c2cc1OC` [Example 26, 2-(4-Chlorophenyl)-4-((2,2,6,6-tetramethylpiperidin-4-yl)amino)-6,7-dimethoxyquinazoline] came in with a melting point of 231 °C. Compound `COc1cc2nc(-c3ccc(Cl)cc3)nc(N3CC[S+]([O-])CC3)c2cc1OC` [Example 76, 2-(4-Chlorophenyl)-4-(1-oxothiomorpholino)-6,7-dimethoxyquinazoline] returned a melting point of 226 °C. Consider `COc1cc2nc(-c3ccc(C(F)(F)F)cc3)nc(N3CCN(C)CC3)c2cc1OC` [Example 45, 2-(4-Trifluoromethylphenyl)-4-(4-methylpiperazino)-6,7-dimethoxyquinazoline], for which the melting point is 139 °C. Turning to `COc1cc2nc(-c3ccc(C)cc3)nc(NCc3cccc([N+](=O)[O-])c3)c2cc1OC` [Example 72, 2-(4-Methylphenyl)-4-((3-nitrophenylmethyl)amino)-6,7-dimethoxyquinazoline], the melting point worked out at 250 °C. For `COc1cc2c(NCCN(C(C)C)C(C)C)nc(-c3cc(C(F)(F)F)cc(C(F)(F)F)c3)nc2c(OC)c1OC` [Example 63, 2-(3,5-Bistrifluoromethylphenyl)-4-(2-diisopropylaminoethylamino)-6,7,8-trimethoxyquinazoline], the melting point worked out at 128 °C.

As to `CCCN(CCC)c1nc(-c2ccc(Cl)cc2)nc2c(OC)c(OC)c(OC)cc12` [Example 80, 2-(4-Chlorophenyl)-4-dipropylamino-6,7,8-trimethoxyquinazoline], the melting point was determined as 109 °C. In turn, `COc1cc2c(N3CCN(c4ccccn4)CC3)nc(-c3ccc(Cl)cc3)nc2c(OC)c1OC` [Example 78, 2-(4-Chlorophenyl)-4-(4-(2-pyridyl)piperazino)-6,7,8-trimethoxyquinazoline] showed a melting point of 141 °C. Same read-out and setting: for `COc1cc2nc(-c3ccc(C)cc3)nc(N3CCSCC3)c2cc1OC` [Example 75, 2-(4-Methylphenyl)-4-thiomorpholino-6,7-dimethoxyquinazoline] the value was 213 °C; for `COc1cc2c(N3CCS(=O)(=O)CC3)nc(-c3ccc(Cl)cc3)nc2c(OC)c1OC` [Example 69, 2-(4-Chlorophenyl)-4-(1,1-dioxothiomorpholino)-6,7,8-trimethoxyquinazoline], 241 °C; for `COc1cc2nc(-c3ccc(Cl)cc3)nc(NCCCn3ccnc3)c2cc1OC` [Example 21, 2-(4-Chlorophenyl)-4-(3-(1-imidazolyl)propylamino)-6,7-dimethoxyquinazoline], 242 °C. For `COc1cc2c(N3CCC(O)CC3)nc(-c3ccc(Cl)cc3)nc2c(OC)c1OC` [Example 95, 2-(4-Chlorophenyl)-4-(4-hydroxypiperidino)-6,7,8-tdmethoxyquinazoline], in data set [1], the “n-fold Stimulation” value worked out at 7 n-fold. Take `COc1cc2nc(-c3ccc(C)cc3)nc(N3CCOCC3)c2cc1OC` [Example 49, 2-(4-Methylphenyl)-4-morpholino-6,7-dimethoxyquinazoline]: the melting point is 200 °C. In turn, `COc1cc2nc(-c3ccc(Cl)cc3)nc(N3CCOCC3)c2cc1OC` [Example 48, 2-(4-Chlorophenyl)-4-morpholino-6,7-dimethoxyquinazoline] showed a melting point of 178 °C.
